From PubChem BioAssay (NCI)
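Interpolation was linear, between the two tested concentrations surrounding the appropriate level; five concentrations were tested over 48 hours in 96-well plates. GI50 = concentration required for 50% inhibition of growth. At the TGI there is no net growth.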

Key:
Assay in all cases: NCI tumour cell line growth inhibition, 48 h
SK-MEL-28 melanoma = system: SK-MEL-28 melanoma
MDA-MB-231 breast = system: MDA-MB-231 breast
SF-539 CNS = system: SF-539 CNS
A498 renal = system: A498 renal
IGROV1 ovarian = system: IGROV1 ovarian
NCI-H23 lung = system: NCI-H23 lung
NCI-H522 lung = system: NCI-H522 lung
NCI/ADR-RES ovarian = system: NCI/ADR-RES ovarian
RPMI-8226 leukemia = system: RPMI-8226 leukemia
EKVX NSCLC = system: EKVX NSCLC
NCI-H226 lung = system: NCI-H226 lung
OVCAR-3 ovarian = system: OVCAR-3 ovarian
HCT-116 colon = system: HCT-116 colon
SR leukemia = system: SR leukemia
M14 melanoma = system: M14 melanoma
U251 CNS = system: U251 CNS
SNB-75 CNS = system: SNB-75 CNS
A549 NSCLC = system: A549 NSCLC
SK-MEL-2 melanoma = system: SK-MEL-2 melanoma
MCF7 breast = system: MCF7 breast
HOP-62 NSCLC = system: HOP-62 NSCLC
KM12 colon = system: KM12 colon
OVCAR-5 ovarian = system: OVCAR-5 ovarian
K-562 leukemia = system: K-562 leukemia
UO-31 renal = system: UO-31 renal
LOX IMVI melanoma = system: LOX IMVI melanoma
SF-295 CNS = system: SF-295 CNS
MDA-MB-435 = system: MDA-MB-435
SN12C renal = system: SN12C renal
SW-620 colon = system: SW-620 colon

`COc1nc(N)ncc1-c1ccc2ncnc(N3CCc4cc(F)c(Cl)cc43)c2c1` showed a GI50 (SK-MEL-28 melanoma) of 5.2 µM, a TGI (SK-MEL-28 melanoma) of 18.9 µM and a GI50 (MDA-MB-231 breast) of 1.84 µM. The TGI (MDA-MB-231 breast) was 6.46 µM, the GI50 (SF-539 CNS) was 2.96 µM and the TGI (SF-539 CNS) was 12.5 µM. The GI50 (A498 renal) was 1.54 µM, the TGI (A498 renal) was 5.43 µM and the GI50 (IGROV1 ovarian) was 0.594 µM. For the same molecule, the TGI (IGROV1 ovarian) was 3.82 µM, the GI50 (NCI-H23 lung) was 4.26 µM and the TGI (NCI-H23 lung) was 39.1 µM. For the same molecule, the GI50 (NCI-H522 lung) was 2.3 µM, the TGI (NCI-H522 lung) was 11.5 µM and the GI50 (NCI/ADR-RES ovarian) was 2.73 µM. The TGI (NCI/ADR-RES ovarian) was 15.7 µM, the GI50 (RPMI-8226 leukemia) was 3.26 µM and the TGI (RPMI-8226 leukemia) was over 100 µM. For the same molecule, the GI50 (EKVX NSCLC) was 1.93 µM, the TGI (EKVX NSCLC) was 86.2 µM and the GI50 (NCI-H226 lung) was 1.15 µM. For the same molecule, the TGI (NCI-H226 lung) was 4.21 µM, the GI50 (OVCAR-3 ovarian) was 2.3 µM and the TGI (OVCAR-3 ovarian) was 11.2 µM. For the same molecule, the GI50 (HCT-116 colon) was 2.93 µM, the TGI (HCT-116 colon) was 11.3 µM and the GI50 (SR leukemia) was 3.09 µM. For the same molecule, the TGI (SR leukemia) was over 100 µM, the GI50 (M14 melanoma) was 18.9 µM and the TGI (M14 melanoma) was over 100 µM. The GI50 (U251 CNS) was 2.3 µM, the TGI (U251 CNS) was 7.74 µM and the GI50 (SNB-75 CNS) was 1.47 µM. It also gave a TGI (SNB-75 CNS) of 4.02 µM, a GI50 (A549 NSCLC) of 2.04 µM and a TGI (A549 NSCLC) of 8.55 µM. For the same molecule, the GI50 (SK-MEL-2 melanoma) was over 100 µM, the TGI (SK-MEL-2 melanoma) was over 100 µM and the GI50 (MCF7 breast) was 3.11 µM. For the same molecule, the TGI (MCF7 breast) was 22 µM, the GI50 (HOP-62 NSCLC) was 1.47 µM and the TGI (HOP-62 NSCLC) was 5.85 µM. It also gave a GI50 (KM12 colon) of 10.4 µM, a TGI (KM12 colon) of over 100 µM and a GI50 (OVCAR-5 ovarian) of 3.92 µM. For the same molecule, the TGI (OVCAR-5 ovarian) was over 100 µM, the GI50 (K-562 leukemia) was 6.45 µM and the TGI (K-562 leukemia) was over 100 µM. For the same molecule, the GI50 (UO-31 renal) was 0.583 µM, the TGI (UO-31 renal) was 3.99 µM and the GI50 (LOX IMVI melanoma) was 3.11 µM. It also gave a TGI (LOX IMVI melanoma) of 14.8 µM, a GI50 (SF-295 CNS) of 2.37 µM and a TGI (SF-295 CNS) of 7.58 µM. It also gave a GI50 (MDA-MB-435) of 6.94 µM, a TGI (MDA-MB-435) of over 100 µM and a GI50 (SN12C renal) of 1.92 µM. It also gave a TGI (SN12C renal) of 10.1 µM and a GI50 (SW-620 colon) of 4.26 µM.
